Data from article PMC7023466, “Novel N,N′-Disubstituted Acylselenoureas as Potential Antioxidant and Cytotoxic Agents” (Antioxidants, 2020).
Where two headings read alike, the source gives them in different places.

Experiments:
[1] = system: MCF-7 cells; experiment: MTT cell viability assay, MCF-7; format: cell-based, human; details: for reduction of cell growth / activity at 10 µM / activity at 50 µM / IC50: 48 h; for reduction of cell growth: in at least one of the cell lines (MCF-7, HT-29, HTB-54); for activity at 10 µM / activity at 50 µM / IC50: Homo sapiens, MCF7; for activity at 10 µM / activity at 50 µM: read-out: Growth (%) MCF-7; for SI (selectivity index): IC50 (184B5)/IC50 (MCF-7)
Method: (§1) The cell viability assay of each compound was carried out using the MTT assay. Each compound was dissolved in dimethyl sulfoxide (DMSO) at a concentration of 0.01 M. Serial dilutions were prepared with a non-supplemented culture medium. The effect of each compound on the cell viability was determined at two different concentrations (10 and 50 µM) in MCF-7, HTB-54, and HT-29 cells. In addition, the selected compounds were tested at six different concentrations between 0.1–100 µM in MCF-7, T47D, H1299, HTB-54, and 184B5 cells.
(§2) Briefly, 1 × 10^4 tumor cells/well or 2 × 10^4 non-tumorigenic cells/well were grown in 96-well plates for 12 h. Then, these cells were incubated with either DMSO (control) or a different concentration of each of the tested compounds for 48 h. Three hours before the termination point, 20 µL of MTT were added to measure the cellular viability. The resultant formazan crystals were dissolved in 50 µL of DMSO, and the absorbance was measured at 570 and 630 nm. The results are expressed as IC50, the half maximal inhibitory concentration. This value was calculated using OriginPro 8.5.1. software (OriginLab, Northampton, MA, USA) by nonlinear curve fitting. Furthermore, the selectivity index (SI) was calculated as the ratio of the IC50 values determined for the non-malignant and the tumor cells (IC50 (184B5)/IC50 (MCF-7). The data were obtained from at least three independent experiments performed in quadruplicates.

[2] = system: H1299 cells; experiment: MTT cell viability assay, H1299; format: cell-based; details: Homo sapiens, NCI-H1299, lung cancer cells, 48 h
Method: as §1, §2

[3] = system: 184B5 cells; experiment: MTT cell viability assay, non-malignant 184B5; format: cell-based; details: Homo sapiens, non-malignant breast cells, 48 h
Method: as §1, §2

[4] = system: T47D cells; experiment: MTT cell viability assay, T47D; format: cell-based; details: Homo sapiens, breast cancer cells, 48 h
Method: as §1, §2

[5] = system: HTB-54 cells; experiment: MTT cell viability assay, HTB-54; format: cell-based; details: Homo sapiens, 48 h; for activity at 10 µM / activity at 50 µM: read-out: Growth (%) HTB-54
Method: as §1, §2

[6] = system: HT-29 cells; experiment: MTT cell viability assay, HT-29; format: cell-based; details: Homo sapiens, 48 h, read-out: Growth (%) HT-29
Method: as §1, §2

[7] = MCF-7 and T47D pooled, read-out: IC50 on breast cancer cells
[8] = breast cancer cells, MTT, read-out: IC50 MCF-7
[9] = HTB-54, lung cancer cells, MTT, read-out: IC50 HTB-54

SMILES	reduction of cell growth ([1]; 10 μM)	reduction of cell growth ([1]; 50 μM)	activity at 10 µM ([1]; 10 μM) [%]	activity at 50 µM ([1]; 50 μM) [%]	IC50 [1, 7] [µM]	IC50 [1, 8] [µM]	IC50 [2] [µM]	IC50 [3] [µM]	IC50 [4] [µM]	activity at 10 µM ([5]; HTB-54) [%]	activity at 50 µM ([5]; HTB-54) [%]	IC50 [5, 9] [µM]	activity at 10 µM [6] [%]	activity at 50 µM [6] [%]	SI (selectivity index) [1]	IC50 ([5]; HTB-54 and H1299 pooled, read-out: IC50 on both lung cancer cells) [µM]
O=C(NC(=[Se])Nc1ccc(C(F)(F)F)cc1)c1cccs1 [Compound 5d]	at least 45%	more than 85%	46.7	23.5	4.2 to 8	4.2 ± 0.2	7.5 ± 0.2	> 100	6.1 ± 0.4	76.2	4.3	14.6 ± 6.3	60.6	29.3		
O=C(NC(=[Se])Nc1ccccc1)c1ccco1 [Compound 6a]	at least 45%	more than 85%	39.9	5		3.5 ± 0.6	30.2 ± 7.2	52.2 ± 3.8	7.8 ± 1	72.8	0.7	26.1 ± 2.3	72.6	35.5	14.7	
O=C(NC(=[Se])Nc1ccc(Cl)cc1)c1cc2ccccc2s1 [Compound 9e]	at least 45%	more than 85%	54.8	44.4		9.8 ± 0.9	8.7 ± 1.4	> 100	7.1 ± 0.6	32.9	9	> 100	45.4	33.5	>10.2	
O=C(NC(=[Se])Nc1ccccc1)c1ccc2c(c1)OCO2 [Compound 10a]	at least 45%	more than 85%	37.8	22.4	4.2 to 8	4.4 ± 1	11.2 ± 0.8	> 100	8 ± 1	44	13.1	> 100	57.3	49.5	>22.9	
COc1ccc(NC(=[Se])NC(=O)c2ccc3c(c2)OCO3)cc1 [Compound 10c]	at least 45%	more than 85%	52.7	15.6		8.5 ± 0.6	7.3 ± 0.2	53.8 ± 10.5	12.9 ± 1.5	78.2	5.1	5.2 ± 4	55.7	35.5	6.3	1.5 to 7.3
O=C(NC(=[Se])Nc1ccc(C(F)(F)F)cc1)c1ccc2c(c1)OCO2 [Compound 10d]			60.6	8.4		7.9 ± 0.7	5.7 ± 0.1	> 100	11.8 ± 1.9	79.6	5.1	23.4 ± 3.2	66.5	13.9	>12.7	
O=C(NC(=[Se])Nc1ccc(Cl)cc1)c1ccc2c(c1)OCO2 [Compound 10e]	at least 45%	more than 85%	55.6	16.9		11.7 ± 1.5	48.6 ± 0.9	73.1 ± 5.2	17.4 ± 3.1	45.5	6.5	2.9 ± 3.2	54.4	21.4	6.2	
